Results reported in patent US20150259331A1, “PROTOZOAN PARASITE GROWTH INHIBITORS” (Northeastern University, priority 2014, published 2015).
Where a name gives a salt, the structure may show the parent alone. Read-outs that look alike come from different tables or passages of the source.

Legend:
L. major amastigote = L. major amastigote assay; type: cell-based
P. falciparum C235 = P. falciparum C235 assay; type: cell-based; conditions: read-out: P. falciparum C235 (EC50)
P. falciparum D6 = P. falciparum D6 assay; type: cell-based; conditions: strain D6
P. falciparum W2 = P. falciparum W2 assay; type: cell-based; conditions: strain W2, read-out: P. falciparum W2 (EC50)
HepG2 cells = test: HepG2 cell toxicity (MTT) assay; type: cell-based
Description: (§1) Then 2 μL of DMSO (control) or different concentrations of drugs prepared from 200× DMSO stocks were added to the cultures. […] All experiments were repeated thrice in independent studies where each dose was administered in duplicate (total n=6). HepG2 Cell Toxicity Assay. The 384 well MTT cytotoxicity assay is a modification of the MTT method described by Ferrari et al. optimized for 384-well throughput, with modifications described below.
HepG2 Cell Toxicity assay. The 384 well MTT cytotoxicity assay is a modification of the MTT method described by Ferrari et al.^1 ENREF—26_ENREF—26_ENREF—26 optimized for 384 well throughput. […] 4.25 μL of diluted test compound was then added to the 38.3 μL of media in each well providing a 10 fold final dilution of compound. […] After a 48 hour incubation period, 8 μL of a 1.5 mg/ml solution of MTT diluted in complete MEM media was added to each well. All plates were subsequently incubated in the dark for 1 hour at room temperature. After incubation, the media and drugs in each well was removed by shaking plate over sink, the plates are then left to dry in hood for 15 minutes. […] Plates are put on a 3-D rotator for 15-30 minutes. Absorbance was determined in all wells using a Tecan iControl 1.6 Infinite plate reader.

L. major promastigote = L. major promastigote assay; type: cell-based
T. cruzi = T. cruzi growth inhibition; type: cell-based, Trypanosoma cruzi; conditions: for inhibition at 10 µM: read-out: T. cruzi % inh at 10 μM
[1] = system: T. brucei brucei Lister 427; test: Trypanosome replication assay; type: cell-based, Trypanosoma brucei brucei; conditions: 48 h, 48 h, values ±7%
Description: as §1, with “cultures. Cells were incubated at 37° C. for 48 h and counted with a hemocytometer.” for “cultures.”

[2] = Plasmodium falciparum, strain C235
[3] = Homo sapiens, HepG2, 48 h, MTT, 48 hour incubation, read-out: HepG2 IC50
[4] = Trypanosoma brucei, concentration giving 50% inhibition of growth of T brucei brucei Lister 427 cells, read-out: Tbb EC50

EC50 (L. major amastigote; Leishmania major) [nM] | EC50 (P. falciparum C235; [2]) [nM] | EC50 (P. falciparum D6; Plasmodium falciparum) [nM] | EC50 (P. falciparum W2; Plasmodium falciparum) [nM] | EC50 (L. major promastigote; Leishmania major) [nM] | EC50 [1, 4] [nM] | Compound | IC50 (HepG2 cells; [3]) [nM] | inhibition at 10 µM (T. cruzi; Trypanosoma cruzi) [%] | also measured
1600 | 39 | 27 | 44 | 2800 | 530 | CN1CCN(S(=O)(=O)c2ccc(-c3ccc4ncnc(Nc5ccc(OCc6cccc(F)c6)c(Cl)c5)c4c3)cc2)CC1 [Compound 10p, N-(3-Chloro-4-((3-fluorobenzyl)oxy)phenyl)-6-(4-((4-methylpiperazin-1-yl)sulfonyl)phenyl)quinazolin-4-amine] | > 15000 | 60 | –
2000 | 50 | 46 | 52 | 3600 | 810 | CN1CCCN(S(=O)(=O)c2ccc(-c3ccc4ncnc(Nc5ccc(OCc6cccc(F)c6)c(Cl)c5)c4c3)cc2)CC1 [Compound 10q, N-(3-Chloro-4-((3-fluorobenzyl)oxy)phenyl)-6-(4((4-methyl-1,4-diazepan-1-yl)sulfonyl)phenyl)quinazolin-4-amine] | 1810 | – | EC50 (T. cruzi; Trypanosoma cruzi): 510 nM
– | – | – | – | – | – | O=S(=O)(c1ccc(-c2ccc3ncnc(Nc4ccc(OCc5cccc(F)c5)c(Cl)c4)c3c2)cc1)N1CCNCC1 [Compound 10s] | – | – | EC50 (L. major amastigote): 800 nM; EC50 (P. falciparum C235; strain C235): 120 nM; EC50 (P. falciparum D6): 94 nM; EC50 (P. falciparum W2): 200 nM; IC50 (HepG2 cells; MTT, 48 hour incubation, read-out: HepG2 IC50): 3320 nM; EC50 (L. major promastigote): > 15000 nM; EC50 (T. cruzi): 790 nM; EC50 ([1]; concentration giving 50% inhibition of growth of T brucei brucei Lister 427 cells, read-out: Tbb EC50): 280 nM
3900 | 200 | 120 | 360 | 1600 | 900 | CS(=O)(=O)c1ccc(-c2ccc3ncnc(Nc4ccc(OCc5cccc(F)c5)c(Cl)c4)c3c2)cc1 [Compound 10t, N-(3-Chloro-4-((3-fluorobenzyl)oxy)phenyl)-6-(4-(methylsulfonyl)phenyl)quinazolin-4-amine] | > 15000 | – | EC50 (T. cruzi; Trypanosoma cruzi): 650 nM
4100 | 4100 | 4100 | 4100 | 4100 | 1440 | O=S(=O)(c1ccc(-c2ccc3ncnc(Nc4ccccc4)c3c2)cc1)N1CCOCC1 [Compound 20a, 6-(4-(Morpholinosulfonyl)phenyl)-N-phenylquinazolin-4-amine Hydrochloride] | > 3000 | 13 | EC50 ([1]; concentration giving 50% inhibition of growth of T brucei brucei Lister 427 cells, listed as NEU-548, Hydrochloride, read-out: Tbb EC50): 1400 nM
> 15000 | 2800 | 1700 | 6200 | 450 | 1150 | Cc1ccc(Nc2ncnc3ccc(-c4ccc(S(=O)(=O)N5CCOCC5)cc4)cc23)cc1 [Compound 20b, 6-(4-(Morpholinosulfonyl)phenyl)-N-(p-tolyl)quinazolin-4-amine Hydrochloride] | > 15000 | 59 | EC50 ([1]; concentration giving 50% inhibition of growth of T brucei brucei Lister 427 cells, listed as NEU-549, Hydrochloride, read-out: Tbb EC50): 1200 nM
> 15000 | 19000 | 12000 | 19000 | > 15000 | 1060 | O=S(=O)(c1ccc(-c2ccc3ncnc(Nc4ccc(O)c(Cl)c4)c3c2)cc1)N1CCOCC1 [Compound 20c, 2-Chloro-4-((6-(4-(morpholinosulfonyl)phenyl)quinazolin-4-yl)amino)phenol Hydrochloride] | > 15000 | 14 | EC50 ([1]; concentration giving 50% inhibition of growth of T brucei brucei Lister 427 cells, listed as NEU-550, Hydrochloride, read-out: Tbb EC50): 1100 nM
4800 | 1200 | 810 | 1700 | 830 | 820 | COc1ccc(Nc2ncnc3ccc(-c4ccc(S(=O)(=O)N5CCOCC5)cc4)cc23)cc1Cl [Compound 20d, N-(3-Chloro-4-methoxyphenyl)-6-(4-(morpholinosulfonyl)-phenyl)quinazolin-4-amine Hydrochloride] | > 15000 | 43 | –
> 15000 | 450 | 250 | 720 | 470 | 1350 | O=S(=O)(c1ccc(-c2ccc3ncnc(Nc4ccc(OCc5ccccc5)c(Cl)c4)c3c2)cc1)N1CCOCC1 [Compound 20e, N-(4-(Benzyloxy)-3-chlorophenyl)-6-(4-(morpholinosulfonyl)phenyl)quinazolin-4-amine Hydrochloride] | > 15000 | 9 | EC50 ([1]; concentration giving 50% inhibition of growth of T brucei brucei Lister 427 cells, listed as NEU-551, Hydrochloride, read-out: Tbb EC50): 1400 nM
470 | 410 | 200 | 440 | 14000 | 680 | O=S(=O)(c1ccc(-c2ccc3ncnc(Nc4ccc(OCc5cccc(Br)c5)c(Cl)c4)c3c2)cc1)N1CCOCC1 [Compound 20f, N-(4-((3-Bromobenzyl)oxy)-3-chlorophenyl)-6-(4-(morpholinosulfonyl)phenyl)quinazolin-4-amine Hydrochloride] | > 15000 | 7 | –
1100 | 330 | 230 | 660 | 15000 | 660 | O=S(=O)(c1ccc(-c2ccc3ncnc(Nc4ccc(OCc5cccc(Cl)c5)c(Cl)c4)c3c2)cc1)N1CCOCC1 [Compound 20g, N-(3-Chloro-4-((3-chlorobenzyl)oxy)phenyl)-6-(4-(morpholinosulfonyl)phenyl)quinazolin-4-amine Hydrochloride] | > 15000 | 4 | –

Compound | EC50 (L. major amastigote; Leishmania major) [nM] | EC50 (P. falciparum C235; [2]) [nM] | EC50 (P. falciparum D6; Plasmodium falciparum) [nM] | EC50 (P. falciparum W2; Plasmodium falciparum) [nM] | EC50 (L. major promastigote; Leishmania major) [nM] | EC50 [1, 4] [nM] | IC50 (HepG2 cells; [3]) [nM] | inhibition at 10 µM (T. cruzi; Trypanosoma cruzi) [%] | also measured
O=S(=O)(c1ccc(-c2ccc3ncnc(Nc4ccc(OCc5cccc(F)c5)c(Cl)c4)c3c2)cc1)N1CCSCC1 [Compound 10r, N-(3-Chloro-4-((3-fluorobenzyl)oxy)phenyl)-6-(4-(thiomorpholinosulfonyl)phenyl)quinazolin-4-amine] | > 15000 | – | 460 | 1600 | > 15000 | 470 | > 15000 | 18 | EC50 (P. falciparum C235; Plasmodium falciparum): 760 nM
CS(=O)(=O)c1cccc(-c2ccc3ncnc(Nc4ccc(OCc5cccc(F)c5)c(Cl)c4)c3c2)c1 [Compound 10u, N-(3-Chloro-4-((3-fluorobenzyl)oxy)phenyl)-6-(3-(methylsulfonyl)phenyl)quinazolin-4-amine] | 4700 | 620 | 520 | 1300 | 3500 | – | > 15000 | – | EC50 (T. cruzi; Trypanosoma cruzi): 5000 nM; EC50 ([1]; Trypanosoma brucei, read-out: Tbb EC50, concentration giving 50% inhibition of growth of T brucei brucei Lister 427 cells): 3210 nM; EC50 ([1]; read-out: Tbb EC50, concentration giving 50% inhibition of growth of T brucei brucei Lister 427 cells, listed as NEU-633): 3200 nM
CN(C)S(=O)(=O)c1ccccc1-c1ccc2ncnc(Nc3ccc(OCc4cccc(F)c4)c(Cl)c3)c2c1 [Compound 10v, 2-(4-((3-Chloro-4-((3-fluorobenzyl)oxy)phenyl)amino)-quinazolin-6-yl)-N,N-dimethylbenzenesulfonamide] | > 15000 | – | 820 | 1800 | 2800 | 1040 | – | – | EC50 (P. falciparum C235; Plasmodium falciparum): 1100 nM; IC50 (HepG2 cells; Homo sapiens, HepG2, 48 h, read-out: HepG2 IC50, MTT, 48 hour incubation): > 15000 nM; EC50 (T. cruzi; Trypanosoma cruzi): 1500 nM; EC50 ([1]; concentration giving 50% inhibition of growth of T brucei brucei Lister 427 cells, listed as NEU-619, read-out: Tbb EC50): 1000 nM
